Counter-ions that a name gives are not always drawn.

Data set [1] has as its system Human Ovarian Cancer OVCAR-3 Cell Subcutaneous Xenograft Tumor. Nature of the data set: In vivo pharmacodynamic (efficacy) study in OVCAR-3 subcutaneous xenograft tumor model. As to conditions: oral, BID*21 days, OVCAR-3 xenograft in CB17-SCID mice. The procedure: Cell Culture: OVCAR-3 cells (human ovarian cancer cell line, sourced from Medsyin's cell bank) were cultured in RPMI-1640 medium (ATCC modified, Gibco) supplemented with 20% FBS (Gibco) and 1% penicillin/streptomycin (P.S.), in vitro at 37 °C with 5% CO2. The cells were passaged twice weekly. OVCAR-3 cells in the exponential growth phase were collected and resuspended in a mixture of PBS and Matrigel (Corning) to prepare a cell suspension with a concentration of 5×10^7 cells/mL for mouse inoculation. The volume ratio of PBS to Matrigel was 1:1.
Animals: CB17-SCID mice, female, 6-8 weeks old, weighing 18-21 grams. A total of 40 mice were inoculated. The mice were provided by Shanghai Lingchang Biotechnology Co., Ltd.
Tumor Inoculation: Each mouse was subcutaneously injected in the right flank with 0.2 mL of OVCAR-3 tumor cells (10×10^6 cells).
Experimental Metrics: The experimental metrics aimed to evaluate whether tumor growth was inhibited, delayed, or cured. The tumor diameter was measured twice weekly using a vernier caliper. The tumor volume was calculated using the formula: V=0.5a×b^2, where a and b represent the longest and shortest diameters of the tumor, respectively.
Antitumor metric TGI (%) reflects the tumor growth inhibition rate. TGI (%) was calculated as follows: TGI (%) = [(1 - (average tumor volume at the end of drug administration in a given group - average tumor volume at the start of drug administration in that group)) / (average tumor volume at the end of treatment in a vehicle control group - average tumor volume at the start of treatment in the vehicle control group)] × 100%.

In the next data set the test system is T-47D cells. Nature of the data set: In vitro T-47D cell viability assay (CellTiter-Glo). As to conditions: Homo sapiens, T47D, 168 h, 7 days incubation. Format: cell-based. As for the experimental part:
1640 medium, fetal bovine serum, and penicillin/streptomycin antibiotics were purchased from Wisent. CellTiter-Glo (cell viability chemiluminescence assay reagent) was purchased from Promega. The T-47D cell line was purchased from Nanjing Cobioer Biosciences Co., Ltd. Envision multimode plate reader (PerkinElmer) was used.
T-47D cells were seeded into a white 384-well plate, with 40 µL of cell suspension containing 300 T-47D cells per well. The cell plate was incubated overnight in a CO2 incubator.
The test compound was serially diluted 5-fold using a multichannel pipette to the 8th concentration, i.e., from 2000 µM to […]. The experiment was set up with duplicate wells. 78 µL of culture medium was added to an intermediate plate, and 2 µL per well of the gradient-diluted compound was transferred to the corresponding position in the intermediate plate. After mixing, 10 µL per well of the mixture was transferred to the cell plate. The concentration range of the compound transferred to the cell plate was from 10 µM to 0.026 nM. The cell plate was incubated in a CO2 incubator for 7 days. Another cell plate was prepared, and the signal value was read on the day of compound addition to serve as the maximum value (Max in the equation below) for data analysis. 10 µL per well of CellTiter-Glo reagent was added to the cell plate, and the cell plate was incubated at room temperature for 10 minutes to stabilize the luminescence signal. The signal was read using the Envision multimode plate reader.
10 µL per well of CellTiter-Glo reagent was added to the cell plate, and the cell plate was incubated at room temperature for 10 minutes to stabilize the luminescence signal. The signal was read using the Envision multimode plate reader.
The raw data were converted to inhibition rates using the equation (Sample-Min)/(Max-Min)×100%. The IC50 value was obtained by fitting the data to a four-parameter curve (using log(inhibitor) vs. response -- Variable slope model in GraphPad Prism). Table 1 provides the inhibitory activity of the compounds of the present application against T-47D cell proliferation.
In general terms: In ATP-based viability assays light output follows the ATP content of the culture.

The nature of data set [2]: Pharmacokinetic study, oral and intravenous administration in mice. The note with it: male, ICR, mouse, in vivo. Also noted: species or system ICR mice. As for the experimental part:
This study used ICR male mice as test animals. The plasma concentrations of the test compounds and the reference compound in mice were quantitatively determined at different time points using the LC-MS/MS method following intravenous injection or oral administration to evaluate the pharmacokinetic characteristics of the test compounds in mice.
ICR mice (male, 20-30 g, 6-8 weeks old, Beijing Charles River).
A clear solution of the test compound was administered to ICR mice (fasted overnight or fed) via tail vein injection or oral gavage. For intravenous injection, blood samples (50 µL) were collected via cheek puncture at 0 h (pre-dose) and at 0.083, 0.25, 0.5, 1, 2, 4, 6, 8, and 24 h post-dose into anticoagulant tubes containing sodium heparin. The mixtures were thoroughly vortexed at 4 °C and centrifuged at 6000 rpm for 3 minutes. For oral gavage, blood samples were collected via cheek puncture at 0 h (pre-dose) and at 0.083, 0.25, 1, 2, 4, 6, 8, and 24 h post-dose into anticoagulant tubes containing sodium heparin. The mixtures were vortexed thoroughly, and centrifuged at 6000 rpm for 3 minutes. Plasma drug concentrations were determined using the LC-MS/MS method. Pharmacokinetic parameters were calculated using Phoenix WinNonlin 8.2.0 pharmacokinetic software with a non-compartmental model and linear-logarithmic trapezoidal rule.

As a reminder, the IC50 is the concentration at which inhibition is half-maximal. Read a high IC50 as weaker potency in that assay. Take `CON(C)Cc1nn2ccnc(Nc3cc([C@H]4CC[C@@H](OC(=O)NC(C)C)C4)[nH]n3)c2c1C` [Formate salt of compound 2]: the TGI worked out at 104.1% in data set [1] (35 mg/Kg), 114.1% in data set [1] (70 mg/Kg) and 114.6% in data set [1] (140 mg/Kg). The compound also registered an IC50 in the data set on T-47D cells of 465 nM.

The term AUC(0-t) denotes exposure summed from dosing to a finite time, without extrapolation to infinity. As usually defined, the half-life is the time needed for the level to fall by half in the phase considered. Read a low half-life as fast loss. The term Cmax denotes the maximum level reached in the sampled fluid or tissue. Usually Tmax stands for the time at which the peak concentration occurs. `CONCc1nn2ccnc(Nc3cc([C@H]4CC[C@@H](OC(=O)NC(C)C)C4)[nH]n3)c2c1F` [Compound 5]: in data set [2], the bioavailability was 129%. In addition, in data set [2] (iv, 5 mg/kg), the AUC(0-t) is 6770 ng·h/mL, the Vd amounted to 7.58 L/kg, the clearance amounted to 13 mL/min/kg and the half-life is 6.48 h. Besides, in data set [2] (po, 30 mg/kg), the AUC(0-t) turned out to be 52600 ng·h/mL, the peak level (Cmax) was 22100 ng/mL and the Tmax worked out at 0.19 h. In addition, in the data set on T-47D cells, inhibition was half-maximal at 193 nM (IC50).

Regarding `CON(C)Cc1nn2ccnc(Nc3cc([C@H]4CC[C@@H](OC(=O)NC(C)C)C4)[nH]n3)c2c1F` [Compound 6], in data set [2], the bioavailability was 196%. In data set [2] (iv, 5 mg/kg), this compound gave an AUC(0-t) of 13200 ng·h/mL, a Vd of 0.52 L/kg, a clearance of 6.35 mL/min/kg and a half-life of 0.93 h. In data set [2] (po, 30 mg/kg), the AUC(0-t) stood at 155000 ng·h/mL, the highest level (Cmax) was 41100 ng/mL and the Tmax was found to be 1.08 h. Also, the IC50 in the data set on T-47D cells is 384 nM.
